Assay results from US11564948B2, “Therapeutic methods using erythrocytes” (Sangui Bio Pty Ltd, priority 2015, dated 2023).

Tested on: MIF
Assay: RBCs or RBC ghosts cultured in plasma with heparin or EDTA, MIF ELISA (Example 1)
Type: cell-based, human
Conditions: addition of EDTA to the cell suspensions, compared with heparin treatment; FIG. 2
Procedure: To determine if the presence of anticoagulants alter the capacity for protein binding to red blood cells, these cells were incubated in plasma with or without heparin or EDTA. Whole blood from healthy volunteers was collected into EDTA vacutainers (3 mg/mL). Plasma was collected from blood collected into hepain and citrate vacutainers. […] The ghosts were then isolated by centrifugation (16,000 g, 20 minutes) and were resuspended in PBS. […] The red blood cells or ghosts were then cultured for 0, 1, or 18 hours at 37° C. As controls, EDTA plasma containing heparin or EDTA were culture under the same conditions. Following incubation, the cell free supernatants was collected and stored at −80° C. Prior to analysis, samples were subjected to ×3 freeze-thaw cycles. MIF concentration of the samples was quantified using a MIF ELISA.

## O=C(O)CN(CCN(CC(=O)O)CC(=O)O)CC(=O)O [EDTA, ethylenediaminetetraacetic acid]
  MIF in the RBC lysates and ghosts 'lysates': substantially less
